Measured values: publication PMC11877286, “Discovery of novel theophylline derivatives bearing tetrazole scaffold for the treatment of Alzheimer's disease” (RSC Advances, 2025)

Assays:
AChE = target: T1, AChE (Homo sapiens, UniProt P22303); assay: biochemical; details: five concentrations 256 μM to 16 μM, triplicate, pH 8.0 buffer
T1 construct: purchased Sigma-Aldrich
Description: AChE inhibition was assessed on a Varioskan Lux 96-well plate reader. […] The IC50 values were determined using TableCurve 2Dv4 software.

BACE1 = target: T2, BACE1 (Homo sapiens, UniProt P56817); assay: BACE1 Inhibitor Screening Kit (FRET substrate); type: biochemical; details: 200 μM compound
T2 construct: purchased Beyotime Biotech
T2 sequence (P56817 46-501, species assumed): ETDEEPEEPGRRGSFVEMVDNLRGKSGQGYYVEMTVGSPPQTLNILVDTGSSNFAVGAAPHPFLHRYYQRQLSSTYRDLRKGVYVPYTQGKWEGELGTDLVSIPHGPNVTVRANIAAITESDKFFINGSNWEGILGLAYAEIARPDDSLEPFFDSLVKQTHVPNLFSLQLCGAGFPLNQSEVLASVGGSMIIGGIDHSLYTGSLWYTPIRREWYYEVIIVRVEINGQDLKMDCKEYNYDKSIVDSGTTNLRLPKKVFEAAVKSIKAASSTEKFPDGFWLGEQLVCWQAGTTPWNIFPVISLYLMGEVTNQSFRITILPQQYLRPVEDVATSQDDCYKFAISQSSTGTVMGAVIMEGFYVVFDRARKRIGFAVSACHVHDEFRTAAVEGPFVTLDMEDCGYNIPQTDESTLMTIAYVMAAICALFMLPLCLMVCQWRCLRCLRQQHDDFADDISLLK
Description: Briefly, BACE1 was incubated with various concentrations of compounds for 5 min at 37 °C in a black 96-well plate, followed by adding a specific fluorescence resonance energy transfer (FRET) substrate into the reaction mixture. […] The inhibitory percentage of BACE1 activity was calculated as following: I(%) = (ΔFIcontrol − ΔFIcompound) × 100/ΔFIcontrol, in which ΔFI denotes the change of fluorescent intensity per min. The inhibitory activity of compounds was initially screened at a fixed concentration of 200 μM.

T1 sequence (P22303 32-614): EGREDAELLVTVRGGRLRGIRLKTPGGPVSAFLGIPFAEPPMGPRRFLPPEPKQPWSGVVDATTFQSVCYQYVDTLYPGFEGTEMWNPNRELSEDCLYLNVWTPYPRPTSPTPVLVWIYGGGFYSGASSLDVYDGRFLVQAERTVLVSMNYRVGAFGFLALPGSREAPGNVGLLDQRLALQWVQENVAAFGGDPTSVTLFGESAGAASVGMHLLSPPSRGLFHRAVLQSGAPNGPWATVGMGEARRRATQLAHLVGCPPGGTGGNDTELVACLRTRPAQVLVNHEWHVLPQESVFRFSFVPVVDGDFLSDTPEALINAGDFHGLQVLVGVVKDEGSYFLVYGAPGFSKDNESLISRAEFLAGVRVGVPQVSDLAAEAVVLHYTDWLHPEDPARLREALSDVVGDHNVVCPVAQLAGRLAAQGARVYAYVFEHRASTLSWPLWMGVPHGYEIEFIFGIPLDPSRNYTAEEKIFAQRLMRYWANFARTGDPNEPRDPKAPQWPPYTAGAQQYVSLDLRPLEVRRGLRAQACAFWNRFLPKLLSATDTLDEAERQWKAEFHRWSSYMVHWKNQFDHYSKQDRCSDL

Row | Compound | IC50 (AChE) [µM] | inhibition at 200 µM (BACE1) [%]
1 | Cn1c(=O)c2c(ncn2Cc2nnn(CCCCC(=O)Nc3ccccc3)n2)n(C)c1=O [Compound 11] | 110 ± 17.5 | -0.32 ± 2.05
2 | Cn1c(=O)c2c(ncn2Cc2nnn(CCCCC(=O)Nc3ccc(I)cc3F)n2)n(C)c1=O [Compound 12] | 15.68 ± 0.06 | 18.2 ± 3.9
3 | COc1ccc(OC(=O)CCCCn2nnc(Cn3cnc4c3c(=O)n(C)c(=O)n4C)n2)cc1 [Compound 13] | 303 ± 34.1 | 1.4 ± 0.03
4 | Cn1c(=O)c2c(ncn2Cc2nnn(CCCCCC(=O)Nc3cccc(Cl)c3)n2)n(C)c1=O [Compound 14] | 153 ± 45 | -2.01 ± 0.83
5 | Cn1c(=O)c2c(ncn2Cc2nnn(CCCCCC(=O)Nc3ccc(Br)cc3)n2)n(C)c1=O [Compound 15] | 84.1 ± 20.2 | 8.94 ± 1.45
6 | Cn1c(=O)c2c(ncn2Cc2nnn(CCCCCC(=O)Nc3ccc(F)c(Cl)c3)n2)n(C)c1=O [Compound 16] | 115 ± 10.6 | -1.54 ± 1.19
7 | Cn1c(=O)c2c(ncn2Cc2nnn(CCCCCC(=O)Nc3ccc(I)cc3F)n2)n(C)c1=O [Compound 17] | 105 ± 12.8 | 18.7 ± 2.26
8 | Cn1c(=O)c2c(ncn2Cc2nnn(CCCCCC(=O)Oc3ccccc3)n2)n(C)c1=O [Compound 18] | 94.4 ± 8.27 | 0.07 ± 3.57
9 | COc1ccc(OC(=O)CCCCCn2nnc(Cn3cnc4c3c(=O)n(C)c(=O)n4C)n2)cc1 [Compound 19] | 267 ± 30.4 | -1.23 ± 0.35
10 | Cn1c(=O)c2c(ncn2Cc2nnn(CCCCCCC(=O)Nc3cccc(Cl)c3)n2)n(C)c1=O [Compound 20] | 221 ± 37.7 | 10.7 ± 0.54
11 | Cn1c(=O)c2c(ncn2Cc2nnn(CCCCCCC(=O)Nc3ccc(Cl)cc3)n2)n(C)c1=O [Compound 21] | 126 ± 22.4 | 12.2 ± 0.47
12 | Cn1c(=O)c2c(ncn2Cc2nnn(CCCCCCC(=O)Nc3ccc(Br)cc3)n2)n(C)c1=O [Compound 22] | 63.5 ± 2.48 | 1.56 ± 3.43
13 | Cn1c(=O)c2c(ncn2Cc2nnn(CCCCCCC(=O)Nc3ccc(F)c(Cl)c3)n2)n(C)c1=O [Compound 23] | 110 ± 17.2 | 12.6 ± 0.45
14 | COc1ccc(OC(=O)CCCCCCn2nnc(Cn3cnc4c3c(=O)n(C)c(=O)n4C)n2)cc1 [Compound 24] | 106 ± 25.7 | 0.74 ± 0.17
15 | Cn1c(=O)c2c(ncn2Cc2nnnn2CCCCCCC(=O)Nc2ccc(Br)cc2)n(C)c1=O [Compound 25] | 70.3 ± 0.1 | -0.48 ± 0.76
16 | Cn1c(=O)c2c(ncn2Cc2nnnn2CCCCCCC(=O)Nc2ccc(F)c(Cl)c2)n(C)c1=O [Compound 26] | 55.4 ± 18.6 | 8.89 ± 0.49
17 | Cn1c(=O)c2c(ncn2Cc2nnnn2CCCCCCC(=O)Nc2ccc(I)cc2F)n(C)c1=O [Compound 27] | 143 ± 23.1 | 7.69 ± 0.86
